Values joined by “and” are separate entries in the source; they are usually repeats but may differ in a detail not shown here. Identical values can stand only once.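 Grown in 96-well plates, cells were treated for 48 hours with each compound at five concentrations. Insufficient inhibition: endpoint recorded as highest concentration tested. At the GI50, growth is halved. TGI denotes the concentration required for complete inhibition of growth.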
Experiments:
Assay in all cases: NCI anticancer screen, dose series, 48 h
CCRF-CEM leukemia = system: CCRF-CEM leukemia
COLO 205 colon = system: COLO 205 colon
EKVX NSCLC = system: EKVX NSCLC
K-562 leukemia = system: K-562 leukemia
NCI-H226 lung = system: NCI-H226 lung
RXF 393 renal = system: RXF 393 renal
SF-268 CNS = system: SF-268 CNS
SN12C renal = system: SN12C renal
SW-620 colon = system: SW-620 colon
U251 CNS = system: U251 CNS

Structure (SMILES) | TGI (CCRF-CEM leukemia) | TGI (COLO 205 colon) | TGI (EKVX NSCLC) | GI50 (K-562 leukemia) [nM] | TGI (K-562 leukemia) | TGI (NCI-H226 lung) [µM] | TGI (RXF 393 renal) | TGI (SF-268 CNS) | TGI (SN12C renal) | TGI (SW-620 colon) | TGI (U251 CNS) | GI50 (CCRF-CEM leukemia) [nM] | GI50 (COLO 205 colon) [µM] | GI50 (EKVX NSCLC) [µM] | GI50 (NCI-H226 lung) [µM] | GI50 (RXF 393 renal) [nM] | GI50 (SF-268 CNS) [µM] | GI50 (SN12C renal) [nM] | GI50 (SW-620 colon) [nM] | GI50 (U251 CNS)
C[C@H]1/C(=C/C(=O)OCCN(C)C)CC[C@H]2[C@H]1C(=O)C[C@H]1C(C)(C)[C@@H](O)CC[C@]21C | > 100 µM | > 100 µM | > 100 µM | > 100000 | > 100 µM | > 100 | > 100 µM | > 100 µM | > 100 µM | > 100 µM | > 100 µM |  |  |  |  |  |  |  |  | 
C=C1CC2(CC(c3ccccc3Cl)OC(c3ccccc3Cl)C2)OC1=O (stereo not given) | 10.1 µM | 5.51 µM | 15.2 µM |  | > 25.3 µM | 21.3 | 4.77 µM | 5.62 µM | 5.75 µM | 5.21 µM | 15.6 µM |  |  |  |  |  |  |  |  | 
O=S(=O)([O-])c1ccc(N=Cc2ccccc2[O-])cc1.O=S(=O)([O-])c1ccc(N=Cc2ccccc2[O-])cc1.[Co+2] | > 100 µM | > 100 µM | > 100 µM | > 100000 | > 100 µM | > 100 | > 100 µM | 79.3 µM | > 100 µM | > 100 µM |  | 15500 | > 100 | 69.2 | > 100 | > 100000 | 20.7 | > 100000 | > 100000 | 
O=C1/C=C/[C@@H](O)[C@@H]2C[C@@H](O)C[C@H]2/C=C/CCC[C@H](CCc2cccc3ccccc23)O1 | 8.02 µM | 0.152 µM | 14 µM | 368 | 14.4 µM | 0.0351 | 0.0674 µM | 12.3 µM | 11.5 µM | 0.451 µM | 12.1 µM | 136 | 0.0659 | 0.0816 | 0.0178 | 22.7 | 0.0365 | 248 | 51.8 | 47.5 nM
CO[C@H]1C=CO[C@@]2(C)Oc3c(C)c(O)c4c(O)c(c(CN5CCN(C)CC5)c(O)c4c3C2=O)NC(=O)/C(C)=C\C=C[C@H](C)[C@H](O)C(C)[C@@H](O)C(C)[C@H](OC(C)=O)[C@@H]1C (stereo not given in full) | 22.3 µM | 25.2 µM | > 100 µM |  | > 100 µM | > 100 | > 100 µM | > 100 µM | > 93.9 µM | > 100 µM | > 100 µM |  |  |  |  |  |  |  |  | 
CCN(CC)CCCC(C)Nc1ccnc2cc(Cl)ccc12 (stereo not given) | > 100 µM | > 100 µM and 38.7 µM | > 100 µM | 22600 | 88.2 µM and 32.4 µM | > 100 | > 100 µM and 26.2 µM | > 100 µM | > 100 µM and 97.1 µM | > 100 µM | > 100 µM and 66.1 µM | 38800 | 50.8 |  | > 100 | 7950 |  | > 100000 |  | > 100000 nM
CCCCOC(=O)c1ccc(N)cc1 | > 100 µM | > 100 µM | > 100 µM | 6660 | > 100 µM | > 100 | > 100 µM | > 100 µM | > 100 µM | > 100 µM | > 100 µM | 48200 | 32.1 | 39.7 | 63.6 | > 100000 | 71.1 | > 100000 | 64000 | > 100000 nM
CN(C)CCCN(CCC1CCCCC1)CCC1CCCCC1 | 6.38 µM | 3.36 µM | 18.8 µM | 591 |  | 26.7 | 4.24 µM | 18 µM | 22.9 µM | 3.31 µM | 3.81 µM | 1720 | 1.48 | 5.68 | 12.1 | 1470 | 5.5 | 9790 | 1750 | 1670 nM
COC(=O)c1ccccc1N(C(=O)c1ccccc1)c1ccccc1C | 83.5 µM | 54.5 µM | > 100 µM |  | > 100 µM | > 100 | 92.1 µM | > 100 µM | > 100 µM | > 100 µM | > 100 µM |  |  |  |  |  |  |  |  | 
O=C(O)C[C@@H](Cl)[C@H](NC(=O)OCc1ccccc1)C(=O)O | > 100 µM | > 100 µM | > 100 µM |  | > 100 µM | > 100 | > 100 µM | > 100 µM | > 100 µM | > 100 µM | > 100 µM |  |  |  |  |  |  |  |  | 
O=C(O)[C@H](Cc1c[nH]c2ccccc12)N1C(=O)c2ccccc2C1=O | > 100 µM | > 100 µM | > 100 µM | > 100000 | > 100 µM | > 100 | > 100 µM | > 100 µM | > 100 µM | > 100 µM | > 100 µM | > 100000 |  |  |  |  |  |  |  | 
C=C(CO)CC(O)c1cc(OC)ccc1OC (stereo not given) | > 100 µM | > 100 µM | > 100 µM |  | > 100 µM | > 100 | > 100 µM | > 100 µM | > 100 µM | > 100 µM | > 100 µM |  |  |  |  |  |  |  |  | 
O=C(/C=C/c1ccc(Cl)cc1)c1ccccc(=O)c1O | 0.773 µM | 6.53 µM | 18.3 µM |  | 12.1 µM | 5.45 | > 100 µM | 36.2 µM | 4.58 µM | > 40 µM | > 100 µM |  |  |  |  |  |  |  |  | 
CC(C)C12Cc3c(ccc4ccccc34)OC1(C)Oc1ccc3ccccc3c1C2 (stereo not given) | > 100 µM | > 100 µM | > 100 µM |  | > 100 µM | > 100 | > 100 µM | > 100 µM | > 100 µM | > 100 µM | > 100 µM |  |  |  |  |  |  |  |  | 
Cc1n[nH]c(=S)n(C)c1=S | > 100 µM | > 100 µM | > 100 µM |  | > 100 µM | > 100 | > 100 µM | > 100 µM | > 100 µM | > 100 µM | > 100 µM |  |  |  |  |  |  |  |  | 
CCCc1n(Cc2ccc3ccccc3c2)cc[n+]1Cc1ccc2ccccc2c1 | 4.93 µM | 1.72 µM | 11.4 µM | 414 | 1.75 µM | 3.92 | 2.49 µM | 2.52 µM | 2.53 µM | 3.33 µM | 2.11 µM | 1480 | 0.458 | 1.71 | 1.31 | 1130 | 1.08 | 1070 | 1340 | 765 nM
CSCS(=O)C[C@H](CO)NC(=O)/C=C/c1c(C)[nH]c(=O)[nH]c1=O (stereo not given in full) | 8.69 µM and 4.02 µM |  | 12.7 µM and 4.98 µM | 1720 | 8.83 µM and 5.01 µM | 3.42 | 3.7 µM and 2.97 µM | 3.86 µM and 1.37 µM | 7.79 µM and 5.49 µM | > 54.6 µM and 25.4 µM | 3.63 µM and 1.91 µM | 1460 | 3.16 | 3.3 |  | 1280 | 0.571 | 1460 | 3350 | 498 nM and 297 nM

From PubChem BioAssay (NCI)
